In patent US20230066011A1, “PYRROLOPYRIMIDINE DERIVATIVE, AND PHARMACEUTICAL COMPOSITION FOR PREVENTING OR TREATING PROTEIN KINASE-RELATED DISEASE COMPRISING SAME AS ACTIVE INGREDIENT” (VORONOI CO., LTD., priority 2019, published 2023):

Experiments:
Type in all cases: biochemical
human GST-DYRK1A = target: T1, human GST-DYRK1A (Homo sapiens, UniProt Q13627); assay: GST-DYRK1A enzyme inhibition, ADP-Glo kinase assay; conditions: ATP 10 μM, GST-DYRK1A full length, read-out: DYRK1 IC50
T1 construct: purified human GST-DYRK1A (full length, Thermo Scientifics) enzyme; purchased Thermo Scientifics
Method in brief: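 Full-length human GST-DYRK1A (10 ng) with 10 μM ATP and specific substrate in 40 mM Tris-HCl pH 7.4, 20 mM MgCl2, 0.5 mg/mL BSA, 50 μM DTT, 1 h at 25 °C. ADP formation read by ADP-Glo luminescence relative to solvent control; IC50 from three data sets.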

human GST-CLK1 = target: T2, human GST-CLK1 (Homo sapiens, UniProt P49759); assay: GST-CLK1 enzyme inhibition, ADP-Glo kinase assay; conditions: ATP 10 μM, GST-CLK1 129-end
T2 construct: purified human GST-CLK1 (129-end, SignalChem) enzyme; purchased SignalChem
T2 sequence (P49759 129-484 limits assumed): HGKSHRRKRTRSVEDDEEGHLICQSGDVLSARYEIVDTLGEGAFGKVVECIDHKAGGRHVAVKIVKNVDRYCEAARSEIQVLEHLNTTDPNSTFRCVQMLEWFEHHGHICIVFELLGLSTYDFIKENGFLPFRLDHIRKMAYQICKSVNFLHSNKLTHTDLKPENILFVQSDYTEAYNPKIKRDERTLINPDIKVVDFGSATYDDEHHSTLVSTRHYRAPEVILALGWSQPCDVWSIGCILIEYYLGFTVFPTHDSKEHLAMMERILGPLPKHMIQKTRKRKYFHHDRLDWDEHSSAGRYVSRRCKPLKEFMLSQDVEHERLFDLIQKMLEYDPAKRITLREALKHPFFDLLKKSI
Method in brief: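 Human GST-CLK1 (129-end, 3 ng) reacted with substrate and 10 μM ATP for 1 h at 25° C in 40 mM Tris-HCl pH 7.4, 20 mM MgCl2, 0.5 mg/mL BSA, 50 μM DTT. ADP-Glo luminescence was normalised to solvent control; IC50 (nM) from 3 data sets.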

LRRK2 = LRRK2 (Homo sapiens, UniProt Q5S007); assay: LRRK2 enzyme inhibition, ADP-Glo kinase assay; design: purchased Invitrogen PR8604B; conditions: ATP 10 μM
Chain of LRRK2 (Q5S007 970-2527 limits assumed): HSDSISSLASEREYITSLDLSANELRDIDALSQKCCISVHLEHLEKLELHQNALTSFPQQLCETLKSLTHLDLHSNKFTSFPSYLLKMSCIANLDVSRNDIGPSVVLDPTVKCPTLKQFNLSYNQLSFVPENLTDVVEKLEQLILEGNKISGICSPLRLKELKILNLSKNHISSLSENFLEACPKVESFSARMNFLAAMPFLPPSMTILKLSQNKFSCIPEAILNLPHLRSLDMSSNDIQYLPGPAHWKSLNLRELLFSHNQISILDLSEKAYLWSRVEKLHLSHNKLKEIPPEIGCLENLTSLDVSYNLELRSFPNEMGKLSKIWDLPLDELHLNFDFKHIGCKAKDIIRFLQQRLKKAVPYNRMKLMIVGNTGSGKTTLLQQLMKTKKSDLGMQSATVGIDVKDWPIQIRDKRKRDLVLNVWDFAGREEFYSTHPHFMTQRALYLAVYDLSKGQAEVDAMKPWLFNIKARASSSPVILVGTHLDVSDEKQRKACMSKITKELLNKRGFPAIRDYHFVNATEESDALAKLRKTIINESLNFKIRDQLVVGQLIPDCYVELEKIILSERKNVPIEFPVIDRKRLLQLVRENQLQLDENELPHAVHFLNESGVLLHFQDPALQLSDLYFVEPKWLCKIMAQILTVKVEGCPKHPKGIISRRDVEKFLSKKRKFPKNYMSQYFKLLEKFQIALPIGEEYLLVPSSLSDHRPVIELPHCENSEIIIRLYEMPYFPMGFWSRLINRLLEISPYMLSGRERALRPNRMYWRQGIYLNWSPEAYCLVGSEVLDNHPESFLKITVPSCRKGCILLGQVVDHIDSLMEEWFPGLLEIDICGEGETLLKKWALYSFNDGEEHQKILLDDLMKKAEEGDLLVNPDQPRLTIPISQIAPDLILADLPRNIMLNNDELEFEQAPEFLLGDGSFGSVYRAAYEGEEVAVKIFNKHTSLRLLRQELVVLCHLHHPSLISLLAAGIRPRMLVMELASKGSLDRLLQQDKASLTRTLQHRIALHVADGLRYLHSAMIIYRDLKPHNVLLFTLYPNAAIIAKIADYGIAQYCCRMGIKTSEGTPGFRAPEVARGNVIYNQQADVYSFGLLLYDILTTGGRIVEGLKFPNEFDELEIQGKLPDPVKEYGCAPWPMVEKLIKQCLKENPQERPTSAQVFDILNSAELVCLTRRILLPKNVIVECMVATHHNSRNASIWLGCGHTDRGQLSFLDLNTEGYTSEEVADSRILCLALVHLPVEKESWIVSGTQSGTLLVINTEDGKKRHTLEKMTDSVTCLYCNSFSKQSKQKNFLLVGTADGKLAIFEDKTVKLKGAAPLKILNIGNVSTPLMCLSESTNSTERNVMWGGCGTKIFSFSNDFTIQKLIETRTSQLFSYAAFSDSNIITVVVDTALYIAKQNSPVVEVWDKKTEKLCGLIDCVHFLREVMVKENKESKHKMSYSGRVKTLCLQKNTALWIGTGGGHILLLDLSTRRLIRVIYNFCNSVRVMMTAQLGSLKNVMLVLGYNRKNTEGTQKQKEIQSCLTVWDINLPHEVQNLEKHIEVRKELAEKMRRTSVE
Protocol: To evaluate an inhibitory activity of the compound according to the present invention against LRRK2, LRRK2 (G2019S), DYRK1, CLK1, and TTK kinases, experiments were performed as follows.
Each of the Example compounds was reacted with a purified human LRRK2 (Invitrogen #PR8604B) enzyme to evaluate an ability to inhibit an enzyme using a method as described below. A composition of 40 mM Tris-HCl (pH 7.4), 20 mM MgCl2, 0.5 mg/mL BSA, and 50 μM DTT was used as a reaction buffer, and all reactions of test substances were performed in the reaction buffer. Each of the compounds was diluted […] from a 10 mM DMSO stock using a serial dilution method, and enzyme activities were measured at final compound concentrations of 50, 10, 2, 0.4, 0.08, 0.016, 0.0032, 0.00064, 0.000128, 0.0000256, 0.00000512, and 0.000001024 μM. In the test, purified ATP (10 μM) and an enzyme substrate (0.2 μg) were reacted with a human LRRK2 (25 ng) enzyme at 25° C. for 2 hours, and the enzyme activities were determined using an in vitro ADP-Glo™ kinase assay (Promega). An enzyme-activity reaction solution, an ADP-Glo reaction solution, and an enzyme-ability detection solution were reacted at a ratio of 2:2:1 to measure a degree of inhibition of the enzyme activity with luminescence. The degree of inhibition of the enzyme activity according to the treatment concentration of each of the compounds was calculated based on the fluorescence of the enzyme activity of the solvent control which was not treated with the compound. In this case, the concentration of each of the compounds inhibiting 50% of the enzyme activity was determined to be an IC50 (nM) value, and calculated using Prism (Version 5.01; GraphPad) software.

LRRK2 (G2019S) = LRRK2 (G2019S) (Homo sapiens, UniProt Q5S007, G2019S); assay: LRRK2 G2019S enzyme inhibition, ADP-Glo kinase assay; design: purchased SignalChem L10-12GG; conditions: ATP 25 μM
Chain of LRRK2 (G2019S) (Q5S007 970-2527 G2019S limits assumed): as the sequence (Q5S007 970-2527 limits assumed) above, with G1050S counted along it
Method in brief: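 Purified human LRRK2 G2019S (16 ng) with 25 μM ATP and 0.2 μg substrate, 2 h at 25° C. in Tris-HCl pH 7.4, MgCl2, BSA, DTT buffer; compounds at 12 final concentrations, 50 μM down to 0.000001024 μM. ADP-Glo luminescence versus solvent control gave IC50.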

IC50 (human GST-DYRK1A) [nM] | IC50 (human GST-CLK1) [nM] | IC50 (LRRK2) [nM] | IC50 (LRRK2 (G2019S)) [nM] | Compound
301 to 1000 | 301 to 1000 | < 100 | – | COc1cc(S(=O)(=O)N2CCC(N3CCOCC3)CC2)ccc1Nc1nc(NCC2CCC2)c2c(C#N)c[nH]c2n1 [Example 94, 4-((cyclobutylmethyl)amino)-2-((2-methoxy-4-((4-morpholinopiperidin-1-yl)sulfonyl)phenyl)amino)-7H-pyrrolo[2,3-d]pyrimidine-5-carbonitrile]
301 to 1000 | 301 to 1000 | < 100 | – | COc1cc(S(C)(=O)=O)ccc1Nc1nc(NC2CCOCC2)c2c(C#N)c[nH]c2n1 [Example 109, 2-((2-methoxy-4-(methylsulfonyl)phenyl)amino)-4-((tetrahydro-2H-pyran-4-yl)amino)-7H-pyrrolo[2,3-d]pyrimidine-5-carbonitrile]
301 to 1000 | 301 to 1000 | < 100 | – | COCC(C)(C)Nc1nc(Nc2ccc(S(C)(=O)=O)cc2OC)nc2[nH]cc(C#N)c12 [Example 111, 4-((1-methoxy-2-methylpropan-2-yl)amino)-2-((2-methoxy-4-(methylsulfonyl)phenyl)amino)-7H-pyrrolo[2,3-d]pyrimdiine-5-carobnitrile]
301 to 1000 | 301 to 1000 | < 100 | – | COc1cc(S(C)(=O)=O)ccc1Nc1nc(NCC2CCC2)c2c(C#N)c[nH]c2n1 [Example 112, 4-((cyclobutylmethyl)amino)-2-((2-methoxy-4-(methylsulfonyl)phenyl)amino)-7H-pyrrolo[2,3-d]pyrimidine-5-carbonitrile]
301 to 1000 | 301 to 1000 | < 100 | – | COc1cc(S(C)(=O)=O)ccc1Nc1nc(NCC2CCCC2)c2c(C#N)c[nH]c2n1 [Example 113, 4-((cyclopentylmethyl)amino)-2-((2-methoxy-4-(methylsulfonyl)phenyl)amino)-7H-pyrrolo[2,3-d]pyrimidine-5-carbonitrile]
301 to 1000 | < 100 | < 100 | – | COCC(C)(C)Nc1nc(Nc2ccc(C(=O)N3CCOCC3)c3c2OCCO3)nc2[nH]cc(C#N)c12 [Example 131, 4-((1-methoxy-2-methylpropan-2-yl)amino)-2-((8-(morpholine-4-carbonyl)-2,3-dihydrobenzo[b][1,4]dioxin-5-yl)amino)-7H-pyrrolo[2,3-d]pyrimidine-5-carbonitrile]
301 to 1000 | 301 to 1000 | < 100 | – | N#Cc1c[nH]c2nc(Nc3ccc(C(=O)N4CCOCC4)c4c3OCCO4)nc(NCC3CCC3)c12 [Example 132, 4-((cyclobutylmethyl)amino)-2-((8-(morpholine-4-carbonyl)-2,3-dihydrobenzo[b][1,4]dioxin-5-yl)amino)-7H-pyrrolo[2,3-d]pyrimidine-5-carbonitrile]
301 to 1000 | < 100 | < 100 | – | CC(C)Nc1nc(Nc2ccc(C(=O)N3CCC(N4CCOCC4)CC3)c3c2OCCO3)nc2[nH]cc(C#N)c12 [Example 140, 4-(isopropylamino)-2-((8-(4-morpholinopiperidine-1-carbonyl)-2,3-dihydrobenzo[b][1,4]dioxin-5-yl)amino)-7H-pyrrolo[2,3-d]pyrimidine-5-carbonitrile]
301 to 1000 | 301 to 1000 | < 100 | – | CC(C)CNc1nc(Nc2ccc(C(=O)N3CCOCC3)c3c2OCCO3)nc2[nH]cc(C(F)(F)F)c12 [Example 169, (8-((4-(isobutylamino)-5-(trifluoromethyl)-7H-pyrrolo[2,3-d]pyrimidin-2-yl)amino)-2,3-dihydrobenzo[b][1,4]dioxin-5-yl)(morpholino)methanone]
301 to 1000 | 301 to 1000 | < 100 | – | CC[C@@H](C)Nc1nc(Nc2ccc(S(C)(=O)=O)cc2OC)nc2[nH]cc(C(F)(F)F)c12 [Example 173, (R)-N^4-(sec-butyl)-N^2-(2-methoxy-4-(methyslulfonyl)phenyl)-5-(trifluoromethyl)-7H-pyrrolo[2,3-d]pyrimidine-2,4-diamine]
301 to 1000 | 301 to 1000 | 301 to 1000 | – | COc1cc(S(C)(=O)=O)ccc1Nc1nc(NC2CCCC2)c2c(C(F)(F)F)c[nH]c2n1 [Example 188, N^4-cyclopentyl-N^2-(2-methoxy-4-(methylsulfonyl)phenyl)-5-(trifluoromethyl)-7H-pyrrolo[2,3-d]pyrimidine-2,4-diamine]
101 to 300 | 101 to 300 | < 100 | – | O=C(c1ccc(Nc2nc(NC3CCCC3)c3c(C(F)(F)F)c[nH]c3n2)c2c1OCCO2)N1CCOCC1 [Example 189, (8-((4-(cyclopentylamino)-5-(trifluoromethyl)-7H-pyrrolo[2,3-d]pyrimidin-2-yl)amino)-2,3-dihydrobenzo[b][1,4]dioxin-5-yl)(morpholino)methanone]
301 to 1000 | 301 to 1000 | < 100 | – | O=C(c1ccc(Nc2nc(NC3CCCCC3)c3c(C(F)(F)F)c[nH]c3n2)c2c1OCCO2)N1CCOCC1 [Example 190, (8-((4-(cyclohexylamino)-5-(trifluoromethyl)-7H-pyrrolo[2,3-d]pyrimidin-2-yl)amino)-2,3-dihydrobenzo[b][1,4]dioxin-5-yl)(morpholino)methanone]
< 100 | < 100 | < 100 | – | CNc1nc(Nc2ccc(C(=O)N3CCOCC3)c3c2OCO3)nc2[nH]cc(C(F)(F)F)c12 [Example 214, (7-((4-(methylamino)-5-(trifluoromethyl)-7H-pyrrolo[2,3-d]pyrimidin-2-yl)amino)benzo[d][1,3]dioxol-4-yl)(morpholino)methanone]
301 to 1000 | < 100 | – | < 100 | O=C(c1ccc(Nc2nc(NCC3CC3)c3c(C(F)(F)F)c[nH]c3n2)c2c1CCO2)N1CCOCC1 [Example 457, (7-((4-((cyclo-propylmeth-yl)amino)-5-(trifluoromethyl)-7H-pyrrolo[2,3-d]pyrimidin-2-yl)amino)-2,3-dihydrobenzo-furan-4-yl) (morpholino) methanone]
301 to 1000 | 301 to 1000 | – | < 100 | O=C(c1ccc(Nc2nc(NCC3CCC3)c3c(C(F)(F)F)c[nH]c3n2)c2c1CCO2)N1CCOCC1 [Example 458, (7-((4-((cyclo-butylmethyl)amino)-5-(trifluoromethyl)-7H-pyrrolo[2,3-d]pyrimidin-2-yl)amino)-2,3-dihydrobenzo-furan-4-yl) (morpholino) methanone]
301 to 1000 | 301 to 1000 | – | < 100 | O=C(c1ccc(Nc2nc(NC3CCCC3)c3c(C(F)(F)F)c[nH]c3n2)c2c1CCO2)N1CCC(N2CCOCC2)CC1 [Example 459, (7-((4-(cyclo-pentylamino)-5-(trifluoromethyl)-7H-pyrrolo[2,3-d]pyrimidin-2-yl)amino)-2,3-dihydrobenzo-furan-4-yl)(4-morpho-linopiperidin-1-yl)methanone]
301 to 1000 | 301 to 1000 | – | 301 to 1000 | O=C(c1ccc(Nc2nc(NCC3CCCC3)c3c(C(F)(F)F)c[nH]c3n2)c2c1CCO2)N1CCOCC1 [Example 463, (7-((4-((cyclo-pentylmeth-yl)amino)-5-(trifluoromethyl)-7H-pyrrolo[2,3-d]pyrimidin-2-yl)amino)-2,3-dihydrobenzo-furan-4-yl) (morpholino) methanone]
301 to 1000 | 301 to 1000 | – | < 100 | CCCCNc1nc(Nc2ccc(C(=O)N3CCOCC3)c3c2OCC3)nc2[nH]cc(C(F)(F)F)c12 [Example 465, (7-((4-(butylamino)-5-(trifluoromethyl)-7H-pyrrolo[2,3-d]pyrimidin-2-yl)amino)-2,3-dihydrobenzo-furan-4-yl) (morpholino) methanone]
